Results taken from patent US12686866B2, “Methods of treating cancer by suppression of FAMIN expression” (Cambridge Enterprise Limited, priority 2018, dated 2026).

Assays:
Assay type in all cases: biochemical
recombinant FAMIN [1] = target: T1, recombinant FAMIN (Homo sapiens, UniProt Q8IV20); assay: FAMIN adenosine deaminase activity: inosine generated from adenosine by recombinant FAMIN; settings: 10 μg recombinant FAMIN, 10 μM adenosine in PBS, 1 h at 37° C.; FIG. 11A
T1 sequence (Q8IV20 1-430): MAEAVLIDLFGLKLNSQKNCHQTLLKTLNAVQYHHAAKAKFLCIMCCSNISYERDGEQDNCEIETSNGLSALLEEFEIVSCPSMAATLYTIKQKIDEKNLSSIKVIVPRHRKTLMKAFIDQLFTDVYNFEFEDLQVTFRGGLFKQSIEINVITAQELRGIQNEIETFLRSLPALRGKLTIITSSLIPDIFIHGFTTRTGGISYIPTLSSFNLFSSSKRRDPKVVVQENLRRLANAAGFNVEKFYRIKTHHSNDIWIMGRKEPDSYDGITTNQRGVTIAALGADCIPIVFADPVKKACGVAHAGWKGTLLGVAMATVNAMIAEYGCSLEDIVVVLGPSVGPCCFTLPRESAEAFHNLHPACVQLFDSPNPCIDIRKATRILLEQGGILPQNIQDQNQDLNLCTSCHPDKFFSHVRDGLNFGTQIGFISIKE
From the text: (§1) FIGS. 11B and 11C show levels of adenine and ribose-1-phosphate (R-1-P) in the reaction described in FIG. 11A.

recombinant FAMIN [2] = target: T1, recombinant FAMIN; assay: FAMIN adenosine phosphorylase activity: adenine and R-1-P from adenosine with recombinant FAMIN; settings: 10 μg recombinant FAMIN, 10 μM adenosine in PBS, 1 h at 37° C., FIG. 11B
From the text: as §1

recombinant FAMIN [3] = target: T1, recombinant FAMIN; assay: FAMIN purine nucleoside phosphorylase activity: hypoxanthine and R-1-P from inosine with recombinant FAMIN; settings: 10 μg recombinant FAMIN, 10 μM inosine in PBS, 1 h at 37° C.; FIG. 11D, E
From the text: as §1

Compound | effect on FAMIN's adenosine deaminase activity (generation of inosine from adenosine) (recombinant FAMIN [1]) | effect on FAMIN's adenosine phosphorylase activity (adenine and R-1-P levels) (recombinant FAMIN [2]) | effect on FAMIN's purine nucleoside phosphorylase activity (hypoxanthine and R-1-P levels) (recombinant FAMIN [3])
CCCCCC[C@@H]([C@@H](C)O)n1cnc2c(N)ncnc21 (racemic) [EHNA, erythro-9-(2-hydroxy-3-nonyl) adenine] | inhibit FAMIN's adenosine deaminase activity | – | –
Nc1nc2c(nc(N)n2[C@@H]2O[C@H](CO)[C@@H](O)[C@H]2O)c(=O)[nH]1 [8-aminoguanosine] | – | leaving FAMIN's adenosine phosphorylase activity intact | active on FAMIN's purine nucleoside phosphorylase activity
